The structures appear in SMILES notation.

In one assay the target is T1, human Bak protein (Homo sapiens, UniProt Q16611).
T1 construct: purchased Creative Biomart BAK1-26166TH
In words: Competitive fluorescence polarization (FP) assay with fluorescent Bak BH3 peptide. It counts as binding. The following applies: purified human Bak protein, fluorescent Bak BH3 domain peptide; mean ± SD, n = 3. The text has this:
To confirm the binding of BKA-073 with Bak, we first conducted a competitive fluorescence polarization (FP) assay using purified human Bak protein, fluorescent Bak BH3 domain peptide, and BKA-073 as described, [37]-[40]. […] There are multiple amino acid differences in the BH3 domains between Bak and other Bcl2 family members, which helps to explain why BKA-073 only binds to Bak but not to other Bcl2 family members (i.e. Bax, Bcl2, Bcl-XL, Bcl-w and Mcl-1). In addition to the FP assay, isothermal titration calorimetry (ITC) was also employed to measure Bak/BKA-073 binding. […] In addition to human Bak/BKA-073 binding, we measured mouse Bak/BKA-073 binding using ITC.
(1 x 10^5 cells) was transferred to a 5 ml culture tube, followed by the addition of 5 μl of FITC Annexin V and 5 μl propidium iodide (PI). […] Samples were analyzed by flow cytometry (BD FACSCantoTMII, BD Biosciences, San Jose, CA). ∆% cell death was calculated with the formula: (% cell death treated - % cell death non-treated) as described […]
Fluorescence polarization (FP) assay
Fluorescence polarization assay was carried out as described previously. […] The FP values (in millipolarization units) were measured using a fluorescence microplate reader at 485/530 nm (Gemini XPS, Molecular Devices). Data analysis and inhibit ory constant (Ki) value was determined by GraphPad prism software as described. […]
(In fluorescence polarisation assays a small probe gives low polarisation when free and higher when bound to something large.)

Assay [1] concerns LSL-KRAS G12D LKB1 fl/fl (KL) mice lung tumors. Briefly: Mutant KRAS-driven lung cancer GEMM (KL mice). The following applies: 15 mg/kg/d i.p. It counts as in vivo, mouse. Here is the method: LSL-KRAS^G12D LKB1^fl/fl (KL) were generated as previously described [30]-[33]. All studies were performed on protocols approved by the Emory University IACUC. Six weeks after cre-adenovirus infection, KL mice were treated with BKA-073 intraperitoneally (i.p) for 48 days. Mice were euthanized with CO2 asphyxiation. After lung perfusion with PBS, the left lung lobes were harvested from mice in control and BKA-073 treated groups and immediately fixed in 10% neutral buffered formalin (Fisher Scientific, Kalamazoo, MI), horizontally cut into three equal parts and embedded in paraffin blocks. Three parts of lung tissues representing different regions of the lung were vertically put into paraffin blocks for hematoxylin-eosin (H&E) staining. Lung tissue samples were sectioned at 3 µm three times for placement of slides and stained with H&E. H&E stained samples were scanned using Nano Zoomer 2.0-HT (Hamamatsu, Japan) and images were analyzed using ImageScope viewing software (Leica Biosystems, Buffalo Grove, IL). Tumor numbers were counted under a microscope and tumor area was quantified using Openlab modular imaging software (PerkinElmer, Waltham, MA) as previously described, [32].
KRAS is the most commonly mutated oncogene, yet no effective targeted therapies exist for KRAS-mutant cancers. […] Since BKA-073 is able to induce apoptosis by activation of Bak via facilitating its oligomerization in vitro and in vivo (Figures 1, 2 and 4), we were interested in testing whether BKA-073 is effective for the treatment of mutant KRAS-driven cancer. To assess the potency of BKA-073 in KRAS mutant-driven lung cancer, lox-stop-lox (LSL)-KRAS^G12D LKB1^fl/fl (i.e. KL) mice were generated and bred out as previously described, [31], [50], [51]. These mice contain a KRAS^G12D LSL knock-in allele and a floxed allele of LKB1 (LKB1^fl/fl), [31]. Primary lung adenocarcinoma was detectable as early as 6 weeks after intranasal administration of 5×10^6 pfu adenovirus expressing Cre recombinase (AdeCre) in KRAS^G12D LKB1^fl/fl (KL) mice. […] After treatment for 48 days, KL mice were euthanized with CO2 asphyxiation. Lungs with tumor and normal lung tissues were collected for further analysis. To quantify tumor burden and tumor multiplicity in mice, H&E-stained lungs were imaged with morphometric software to quantify the surface area composed of tumor as opposed to normal tissue of representative cross-sections of each lung lobe for each mouse as previously described [31]-[33]. […] There were 4 deaths out of 6 mice in the control group versus 2 death out of 6 mice in the BKA-073 treatment group […], calculated up to 48 days before euthanization.

T1 sequence (Q16611 whole entry): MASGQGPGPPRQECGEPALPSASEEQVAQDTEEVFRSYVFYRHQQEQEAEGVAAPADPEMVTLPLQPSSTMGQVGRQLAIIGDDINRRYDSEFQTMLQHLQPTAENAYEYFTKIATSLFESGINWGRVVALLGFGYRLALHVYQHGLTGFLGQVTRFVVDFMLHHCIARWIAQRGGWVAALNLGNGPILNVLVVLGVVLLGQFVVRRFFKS

For the molecule `COc1ccc2nc3ccccc3c(NCCNCC(C)O)c2c1` (centres unmarked) [BKA-073], at human Bak protein, the Ki (as a rule, a measure of affinity in units of concentration, obtained from inhibition or displacement) stood at 72.3 ± 5.96 nM. For the same molecule, in assay [1] (48 days), the “tumor burden in the lung” value is reported as “significant reduction” and the “tumor multiplicity in the lung” value was “significant reduction”. Moreover, the “deaths out of 6 mice” value in assay [1] (up to 48 days, control 4 of 6, p < 0.01) amounted to 2. The survival result in assay [1] (vs control group) is reported as “significantly prolonged survival”.
